Assay results: US11492357B2, “Thieno[3,2-d]pyrimidine derivative compound having inhibitory activity for protein kinase” (Hanmi Pharm. Co., Ltd., priority 2017, dated 2022)
pIC50: −log10 of the molar value. Counter-ions that a name gives are not always drawn.

What was measured:
[1] = tested on: SK-MEL-30 melanoma cells (N-RAS Q61K mutant); test: Inhibition of cell growth of N-RAS Q61K mutant SK-MEL-30 cells (SRB); format: cell-based; settings: Homo sapiens, 72 hours incubation, SRB staining
Description: N-RAS^Q61K mutant SK-MEL-30 melanoma cell line (ACC-151) was obtained from DSMZ (Deutsche Sammlung von Mikroorganismen und Zellkulturen GmbH, Germany). SK-MEL30 cells express wildtype B-RAF and mutant N-RAS (Q61K). SK-MEL-30 cells were incubated in a RPMI medium supplemented with 10% FBS and 1% penicillin/streptomycin (Gibco BRL) under 37° C., 5% CO2 and 95% air. Cells were seeded in 96-well plates at a density of 5,000 cells/well, and cultured for 18 hours or more. Then cells were treated with 0.1-10 μM (1/10 serial dilution) of test compounds, and incubated for 72 hours.
To evaluate cell viabilities, SK-MEL-30 cell lines were fixed with 10% TCA (trichloroacetic acid), stained with SRB (sulforhodamine B), and the absorbance was measured at 540 nm. Then, GI50, i.e., the concentration of drug to cause 50% reduction in proliferation of cancer cells, was calculated therefrom. The growth rates of cancer cells were calculated by Equation 1 or 2. [(Ti−Tz)/(C−Tz)]×100 (for […]) Equation 1 [(Ti−Tz)/Tz]×100 (for Ti<Tz) Equation 2
In Equation 1 and 2, ‘Tz’ refers to the density of untreated cells, which is the absorbance in 0% cell growth groups. ‘C’ refers to the density of cells cultured by adding only medium, and ‘Ti’ refers to the density of cells treated with test compounds. […]

B-RAF V600E = B-RAF V600E (Homo sapiens (Human), UniProt P15056, V600E); test: RAF kinase inhibitory activity, Kinase Profiling Service; format: biochemical
B-RAF V600E, sequence (P15056 whole entry V600E): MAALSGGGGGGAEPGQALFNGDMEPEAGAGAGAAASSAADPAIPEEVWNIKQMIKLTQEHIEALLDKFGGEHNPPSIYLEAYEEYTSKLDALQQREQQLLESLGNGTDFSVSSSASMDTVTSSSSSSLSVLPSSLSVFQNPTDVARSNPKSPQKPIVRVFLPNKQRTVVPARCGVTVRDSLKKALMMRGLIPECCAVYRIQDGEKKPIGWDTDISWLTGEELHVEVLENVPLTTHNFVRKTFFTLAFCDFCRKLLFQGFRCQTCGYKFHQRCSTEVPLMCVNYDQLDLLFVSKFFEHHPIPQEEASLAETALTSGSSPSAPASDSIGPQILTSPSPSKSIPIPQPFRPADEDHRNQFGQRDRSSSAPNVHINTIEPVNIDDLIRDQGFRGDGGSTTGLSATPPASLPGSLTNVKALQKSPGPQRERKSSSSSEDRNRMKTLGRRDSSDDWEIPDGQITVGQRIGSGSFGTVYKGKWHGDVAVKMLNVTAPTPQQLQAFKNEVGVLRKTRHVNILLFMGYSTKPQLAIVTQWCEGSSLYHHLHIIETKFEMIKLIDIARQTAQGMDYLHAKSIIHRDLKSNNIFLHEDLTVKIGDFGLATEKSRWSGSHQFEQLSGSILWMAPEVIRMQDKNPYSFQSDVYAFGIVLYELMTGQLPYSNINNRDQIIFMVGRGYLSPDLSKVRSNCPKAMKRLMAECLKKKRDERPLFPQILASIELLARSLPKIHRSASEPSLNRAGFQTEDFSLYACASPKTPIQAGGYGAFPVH
Description: (§1) The levels of enzymatic inhibition of the compound were calculated as percent inhibition at various concentrations. Based on percent inhibition, dose-response curves were plotted using GraphPad Prism software.

B-RAF wild type = B-RAF wild type (Homo sapiens (Human), UniProt P15056); test: as above; format: biochemical; settings: read-out: B-RAF WT (IC50)
B-RAF wild type, sequence (P15056 whole entry): as the sequence (P15056 whole entry V600E) above, with E600V counted along it
Description: as §1

RAF1 (C-RAF) Y340D/Y341D = RAF1 (C-RAF) Y340D/Y341D (Homo sapiens (Human), UniProt P04049, Y340D/Y341D); test: as above; format: biochemical
RAF1 (C-RAF) Y340D/Y341D, sequence (P04049 whole entry Y340D/Y341D): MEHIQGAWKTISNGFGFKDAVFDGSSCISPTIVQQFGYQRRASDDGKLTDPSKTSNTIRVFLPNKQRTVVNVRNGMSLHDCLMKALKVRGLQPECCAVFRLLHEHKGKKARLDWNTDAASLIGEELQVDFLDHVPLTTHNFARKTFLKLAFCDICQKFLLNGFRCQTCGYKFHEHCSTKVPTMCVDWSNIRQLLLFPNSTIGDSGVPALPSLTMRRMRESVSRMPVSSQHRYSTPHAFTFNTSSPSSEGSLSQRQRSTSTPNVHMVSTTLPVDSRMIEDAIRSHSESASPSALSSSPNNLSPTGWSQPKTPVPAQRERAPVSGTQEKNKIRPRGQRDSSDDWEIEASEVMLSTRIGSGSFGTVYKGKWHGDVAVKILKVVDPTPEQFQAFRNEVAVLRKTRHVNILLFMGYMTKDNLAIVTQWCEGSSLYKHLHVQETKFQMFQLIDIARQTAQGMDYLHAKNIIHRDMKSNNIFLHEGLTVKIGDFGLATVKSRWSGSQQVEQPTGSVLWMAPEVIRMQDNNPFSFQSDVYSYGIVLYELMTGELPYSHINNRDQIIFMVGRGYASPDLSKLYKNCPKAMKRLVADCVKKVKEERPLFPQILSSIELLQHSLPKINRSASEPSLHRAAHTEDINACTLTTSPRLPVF
Description: as §1

| GI50 [1] [nM] | pIC50 (B-RAF V600E) | pIC50 (B-RAF wild type) | pIC50 (RAF1 (C-RAF) Y340D/Y341D) | Structure (SMILES) |
| --- | --- | --- | --- | --- |
| 231 | 7.52 | 6.41 | 7.68 | Cc1ccc2c(Nc3ccc(O)c(Cl)c3F)nccc2c1NC(=O)c1csc2c(N)ncnc12 [Compound•2HCl, 4-amino-N-(1-((3-chloro-2-fluoro-4-hydroxyphenyl)amino)-6-methylisoquinolin-5-yl)thieno[3,2-d]pyrimidine-7-carboxamide dihydrochloride] |
| > 10000 | – | – | – | CCCS(=O)(=O)Nc1ccc(F)c(C(=O)c2c[nH]c3ncc(-c4ccc(Cl)cc4)cc23)c1F [Control, vemurafenib, reference compound] |
